Data as given in patent US20180296507A1, “REDOX-ACTIVATED GLYCOCONJUGATED PROCHELATORS” (ARIZONA BOARD OF REGENTS ON BEHALF OF THE UNIVERSITY OF …, priority 2013, published 2018).
Where “and” joins values, the source holds several entries; their conditions need not be identical. Equal entries are not always repeated. Entries after “also recorded” stand apart in the source; their conditions may differ.

Key:
[1] = test system: intracellular iron; assay: Calcein-based iron displacement assay in suspended Jurkat cells; assay type: cell-based
Description: In some embodiments, intracellular activation and iron chelation may be investigated using a calcein-based iron displacement assay. This assay may confirm the activation of the prochelators for iron scavenging, and may also indicate the timeframe for cellular entry and iron binding. […] Data such as this may be collected for particular glycoconjugates to assess the duration of uptake and in particular to determine differences among systems carrying different connectivity (e.g., linker, position of glucose substitution) between the sugar and the prochelator units.

[2] = test system: intracellular iron; assay: EPR experiments in whole leukemia cells; assay type: cell-based
Description: Chelators (e.g., TC1SH, TC2SH, TC3SH) are released upon reduction of the disulfide bond. The reduced species (e.g., TC1SH, TC2SH, TC3SH) are tridentate iron chelators forming complexes of 2:1 ligand-to-metal stoichiometry. Magnetic measurements and X-ray crystallographic data on the resulting iron complexes (see FIG. 4, BF4^− counterion not shown) indicate that these chelators stabilize iron centers as low-spin Fe(III) species. […] The present invention is not limited to chelators that stabilize iron centers as low-spin Fe(III) species.

[3] = Aqueous solubility by UV-Vis absorption spectroscopy of saturated buffer solutions; assay type: physicochemical; settings: 5.0 mM TRIS buffer, pH 7.40; average ± SD of triplicate
Experimental: Solubility measurements. The effect of the sugar motif on the aqueous solubility of the synthesized prochelators was investigated by UV-Visible absorption spectroscopy. Determination of molar extinction coefficients of each compound in aqueous buffer (5.0 mM TRIS, pH 7.40) allowed measurement of their concentration at saturation. Stock solutions were prepared in DMSO and diluted in TRIS buffer (5.0 mM, pH 7.40). Buffer solutions containing identical amounts of DMSO (0.3% v/v) were used to obtain blank spectra. […] For solubility measurements, saturated solutions were centrifuged for 20 minutes at 3,200 rpm to remove any precipitate and concentrations were determined by UV-Vis spectroscopy. […] Measurements were done in a set of triplicates.

[4] = test system: Caco-2 cells; assay: MTT cytotoxicity assay in Caco-2 cells; assay type: cell-based, human; settings: for IC50: 72 h exposure, average ± SD of triplicate
Experimental: (§1) Cell culture. Caco-2 (ATCC® HTB-37™) colorectal adenocarcinoma and CCD-18Co (ATCC® CRL-1459™) normal colon fibroblasts were cultured under a 5% CO2 humidified atmosphere at 37° C. in Eagle's Minimal Essential Medium (EMEM) supplemented with 10% fetal bovine serum (FBS), glutamine (2 mM), sodium pyruvate (1 mM), sodium bicarbonate (1.5 g/L), penicillin (100 units/mL), streptomycin (100 μg/mL) and human holo-transferrin (1.25 μM (1 mg/10 mL) prior to use. Flow cytometric analysis was performed at the University of Arizona Cytometry Core Facility (Arizona Cancer Center/Arizona Research Laboratories) using a FACSCanto II flow cytometer (BD Biosciences, San Jose, Calif.) equipped with an air-cooled 15-mW argon ion laser tuned to 488 nm. List mode data files consisting of 10,000 events gated on FSC (forward scatter) vs SSC (side scatter) were acquired and analyzed using CellQuest PRO software (BD Biosciences, San Jose, Calif.). Appropriate electronic compensation was adjusted by acquiring cell populations stained with each dye/fluorophore individually, as well as an unstained control.
(§2) Cytotoxicity assays. The cytotoxicity of the prochelators were assessed using MTT (3-(4,5-dimethylthiazol-2-yl)-2,5-diphenyl-tetrazolium bromide) assays after 72-hour incubations (Table 2). In all cases, the prochelator conjugates are more toxic (lower IC50 values) in the malignant Caco-2 cells than in the normal CCD18-co cells.
(§3) MTT (3-(4,5-dimethylthiazol-2-yl)-2,5-diphenyltetrazolium bromide) viability assays were conducted by standard methods with slight modifications. Cells were seeded at 4000 cells per well for Caco-2 and 10,000 cells per well for CCD18-co and allowed to attach for 24 h. Test compounds dissolved in DMSO were diluted in EMEM to the specified concentration (with final DMSO concentration limited to 0.1%). Cells were incubated in the presence of the test compounds for 72 h, then the MTT solution (4 mg/mL, 10 μL) was added to each well and incubated for 4 h. Following media removal, DMSO (100 μL) was added to each well to dissolve the purple formazan crystals and the plates were incubated for an additional 30 minutes. Absorption at 560 nm was recorded and data were analyzed using logarithmic fits to obtain IC50 values. Each experiment was conducted in triplicate, and values are given as averages plus/minus standard deviation.

[5] = test system: CCD18-co cells; assay: MTT cytotoxicity assay in CCD18-co cells; assay type: cell-based, human; settings: 72 h exposure, average ± SD of triplicate
Experimental: as §1, §2, §3

[6] = test system: glucose transporters; assay: Competition assay with 2-NBDG in MDA-MB-231 cells (flow cytometry); assay type: cell-based; settings: compound 25-100 μM, 30 min, 2-NBDG 200 μM
Description: (§4) The competition assays used fluorescently labeled glucose bioprobe 2-(N-(7-nitrobenz-2-oxa-1,3-diazol-4-yl)amino)-2-deoxyglucose (2-NBDG). […] Without wishing to limit the present invention to any theory or mechanism, it is believed that the glycoconjugation may offer an advantageous increase in cancer cell specificity due to the conjugate being a substrate for the GLUT1 transporter protein and thus taking advantage of its overexpression in cancer cells as compared to normal cells.

[7] = test system: glucose transporters; assay: Competition assay of transporter-mediated uptake with 2-NBDG in Caco-2 cells (flow cytometry); assay type: cell-based, human; settings: compound 50 μM; for Competition with 2-NBDG (decrease in intracellular fluorescence): CACO-2 cells, 30 min, 2-NBDG 200 μM; for Competition with 2-NBDG for transporter-mediated uptake: Caco-2 cells, 2-NBDG 100 μM, 40 min
Experimental: Co-treatment with glucose (10 mM) and glucose transporter (GLUT1) inhibitor phloretin (100 μM, 30 min) are employed as positive controls. Experiments were conducted in triplicate and values shown are averages±standard deviation. Statistical analysis: ** p<0.01, *** p<0.001 as compared to the control.
as §4
Competition assay of transporter-mediated uptake. Caco-2 cells were plated at 1×10^6 cells per well in 6-well plates and allowed to adhere for 36 hours. Growth media were then removed and cells were incubated for 12 hours in glucose-free EMEM. […] As a positive control, after starvation cells were treated with 100 μM phloretin for 30 minutes, then treated with EMEM containing 100 μM 2-NBDG for 40 minutes. Cells were washed with PBS (1 mL) and detached by addition of Trypsin-EDTA (400 μL) and incubation for 3 minutes at 37° C. Following addition of EMEM (1 mL), the cell suspensions were centrifuged at 125 g for 10 minutes. The resulting pellets were suspended in PBS (0.5 mL) and transferred to a flow cytometry tube. Cells were stored on ice and analyzed by flow cytometry within 1 hour. Data are obtained as the average of three sets of geometric means of the flow cytometry histogram, and plotted as the percent difference from the control plus/minus the standard deviation between three values.

| Compound | IC50 ([4]; MTT) [µM] | IC50 [5] [µM] | Competition with 2-NBDG for transporter-mediated uptake [7] | also measured |
| --- | --- | --- | --- | --- |
| S=C(N/N=C/c1ccccc1SSc1ccccc1/C=N/NC(=S)Nc1ccccc1)Nc1ccccc1 [(TC1S)2] |  |  |  | Timeframe of passive diffusion, activation and iron coordination [1]: within minutes; Intracellular reduction/activation and formation of low-spin Fe(III) complex [2]: direct evidence for both the reduction/activation |
| COc1ccc(NC(=S)NN=Cc2ccccc2SSc2ccccc2C=NNC(=S)Nc2ccc(OC)cc2)cc1 [(TC4-S)2] |  |  |  | Concentration at saturation [3]: <5 μM and <3 mg/L |
| COC(=O)CCSSc1ccccc1C=NNC(=S)Nc1ccc(OC)cc1 [ATC4] | 8.1 ± 0.2 | 27.5 ± 0.4 |  | Times more toxic in Caco-2 cells than in CCD18-co cells ([4]; MTT, 72 h): 3 times; Therapeutic Index ([4]; ratio of IC50 in normal CCD18-co cells relative to malignant Caco-2 cells): 3.4 ± 0.1; Concentration at saturation [3]: 11 ± 1 μM and 4.7 ± 0.5 mg/L |
| O=C(CCSSc1ccccc1C=NNC(=S)Nc1ccccc1)NC1C(O)OC(CO)C(O)C1O (stereo not shown) [Compound G2TC1] |  |  |  | Uptake of 2-NBDG in the presence of compound [6]: decreased uptake of the fluorescent glycoconjugate |
| O=C(CCSSc1ccccc1C=NNC(=S)Nc1ccccc1)OCC1OC(O)C(O)C(O)C1O (stereo not shown) [Compound G6TC1] |  |  |  | Competition with 2-NBDG (decrease in intracellular fluorescence) [7]: better competitors of 2-NBDG; also recorded: over three times the decrease due to G2TC1 |
| COc1ccc(NC(=S)NN=Cc2ccccc2SSCCC(=O)OCC2OC(O)C(O)C(O)C2O)cc1 (stereo not shown) [Compound G6TC4] | 6.9 ± 0.4 | 76 ± 2 | competes strongly with 2-NBDG for uptake; also recorded: competes aggressively with fluorescent glycoconjugate 2-NBDG |  |
| O=C(CCSSc1ccccc1C=NNC(=S)Nc1ccccc1)OCC1OC(O)C(O)C(O)C1O (stereo not shown) [Compound M6TC1] |  |  |  | Competition with 2-NBDG (decrease in intracellular fluorescence) [7]: better competitors of 2-NBDG |
| COc1ccc(NC(=S)NN=Cc2ccccc2SSCCC(=O)OCC2OC(O)C(O)C(O)C2O)cc1 (stereo not shown) [Compound M6TC4] | 10.1 ± 0.3 | 62.2 ± 0.1 | competed successfully with 2-NBDG |  |
| COc1ccc(NC(=S)NN=Cc2ccccc2SSCCC(=O)NC2C(O)OC(CO)C(O)C2O)cc1 (stereo not shown) [GA2TC4] |  | 22.5 ± 0.8 | did not compete for uptake with 2-NBDG |  |
